Data taken from patent US8946219B2, “Combination therapy with a compound acting as a platelet ADP receptor inhibitor” (Portola Pharmaceuticals, Inc., priority 2007, dated 2015).

How the values were obtained:
[1] = tested on: thrombosis on mouse mesenteric arteries; experiment: Mouse mesenteric artery thrombosis model, 5% FeCl3 (Example 13, present tense); assay type: in vivo, C57B16J mice; settings: for antithrombotic activity in the intravital microscopy thrombosis model in mice: other factor Xa inhibitors, expected
Protocol: Thrombosis on mouse mesenteric arteries (shear rate 1000-1300 s^−1) is performed and recorded as previously described with minor modifications, as described in Andre, P. et al., Anticoagulants (thrombin inhibitors) and aspirin synergize with P2Y12 receptor antagonism in thrombosis. Circulation, 2003, 108(21):2697-703. Platelets are labeled in situ using rhodamine 6G (0.2 mg/mL) administered through the tail vein 10 mins before visualization of the arteries. Vessel-wall injury is triggered by a 1×1-mm filter paper saturated with a 5% FeCl3 solution. After 5 minutes, the filter paper is removed and mesenteric arteries rinsed with warmed saline (37° C.). Platelet vessel-wall interactions are recorded for 40 additional mins or until full occlusion occurs and persists for more than 40 seconds. C57B16J mice are orally gavaged with vehicle control, Compound A (7.5, 20, 60 mg/kg) or betrixaban (4, 40, 400 mg/kg) two hours prior to vascular injury. Thrombosis is analyzed in real time using Simple PCI software, as described in Andre, P. et al., P2Y12 regulates platelet adhesion/activation, thrombus growth, and thrombus stability in injured arteries. J Clin Invest, 2003, 112(3):398-406. The fluorescence intensity is recorded at a rate of 2 Hz for 40 minutes and plotted over time. Time to occlusion (cessation of blood flow) is analyzed.

[2] = tested on: thrombus formation under arterial shear conditions; experiment: Perfusion assay, blood collected in bivalirudin, type III collagen, 1600 s^−1 (Example 8); assay type: cell-based; settings: bivalirudin alone, 12 μg/mL
Protocol: As an example of additive antithrombotic benefit achieved when Compound A was combined with a direct thrombin inhibitor, such as bivalirudin, in the following assay, blood was collected in 12 μg/mL bivalirudin (standard therapeutic concentration), incubated with various concentrations of Compound A (0.1, 1 or 10 μM) for 20 mins in the presence of rhodamine 6G (which fluorescently labels platelets), followed by perfusion through a glass capillary coated with collagen (type III) at a fixed shear rate (1600 s^−1). […] FIG. 7 illustrates the combined antithrombotic benefit achieved by the combination of Compound A and bivalirudin.

[3] = tested on: thrombosis on mouse mesenteric arteries; experiment: Mouse mesenteric artery thrombosis model, intravital microscopy, 10% FeCl3 (Example 14); assay type: in vivo, C57B16J mice
Protocol: Thrombosis on mouse mesenteric arteries (shear rate 1000-1300 s^−1) was performed and recorded as previously described with minor modifications. (Andre, P., et al., Anticoagulants (thrombin inhibitors) and aspirin synergize with P2Y12 receptor antagonism in thrombosis. Circulation, 2003. 108(21): p. 2697-703.) Platelets were labeled in situ using rhodamine 6G (0.2 mg/mL) administered through the tail vein 10 min before visualization of the arteries. Vessel-wall injury was triggered by a 1×1-mm filter paper saturated with a 10% FeCl3 solution. After 5 minutes, the filter paper was removed and mesenteric arteries rinsed with warmed saline (37° C.). Platelet vessel-wall interactions were recorded for 40 additional min or until full occlusion occurred and persisted for more than 40 seconds. C57B16J mice were orally gavaged with vehicle control, compound A (0.83, 2.5, 7.5, 20, 60 mg/kg) or betrixaban (2, 4, 10 mg/kg) two hours prior to vascular injury. Thrombosis was analyzed in real time using Simple PCI software. (Andre, P., et al., P2Y12 regulates platelet adhesion/activation, thrombus growth, and thrombus stability in injured arteries. J Clin Invest, 2003. 112(3): p. 398-406.) The fluorescence intensity was recorded at a rate of 2 Hz for 40 minutes and plotted over time. Time to occlusion (cessation of blood flow) is analyzed.
Plasma concentrations of Compound A and betrixaban were determined on blood draw collected 2 min post-occlusion or 42 min after start of vascular injury.

[4] = tested on: ADP induced platelet aggregation in human platelet rich plasma; experiment: ADP induced platelet aggregation; assay type: cell-based
[5] = tested on: whole human blood perfused over type III collagen (thrombus formation); experiment: Real time perfusion chamber thrombosis assay (Example 3); assay type: cell-based; settings: read-out: inhibition of thrombosis
From the text: The real time perfusion chamber assay couples the features of animal thrombosis models that use intravital microscopy to those of perfusion chamber technology in order to produce an assay suited to monitoring drug activity in clinical trials. This assay perfuses whole blood through capillaries at arterial rates of shear, exposing the blood to thrombogenic type III collagen. Platelets are labeled with a fluorescent dye (rhodamine 6 G) prior to perfusion such that analysis of the thrombus deposition can be performed by measurement of fluorescence intensity inside the perfusion chamber. Quantification is performed by analysis of the thrombus height (fluorescence intensity (number of pixels)/total area (μm^2)).

[6] = tested on: platelet thrombus formation on collagen-coated capillary (type I collagen); experiment: Perfusion assay, non-anticoagulated whole blood, type I collagen, 1000 s^−1 (Example 6); assay type: cell-based, human; settings: Compound A alone at 10 μM
Protocol: After perfusion the size of the platelet thrombus was measured by fluorescence.

[7] = tested on: thrombin generation in platelet rich plasma; experiment: Platelet-initiated thrombin generation assay (Example 5); assay type: cell-based, human
Protocol: Whole blood from healthy volunteer donors was collected by venipuncture and drawn into 3.2% trisodium citrate (Vacutainer, Becton Dickinson) for anticoagulation. Platelet rich plasma was prepared by centrifugation and the platelet count was adjusted to 150,000/μL. In a 96 well plate, platelets were activated by addition of convulxin (200 ng/mL) and incubation at 37° C. for 3 mins. Subsequent to platelet activation, thrombin generation was initiated by addition of 23 pM tissue factor (Innovin, Dade Behring) and 15 mM calcium. Thrombin activity was monitored by cleavage of the specific fluorogenic substrate (Z-gly-gly-arg-AMC, Bachem) in a fluorescence plate reader.

[8] = betrixaban 10 mg/kg, oral gavage

With `COc1ccc(-n2nc(C(N)=O)c3c2C(=O)N(c2ccc(N4CCCCC4=O)cc2)CC3)cc1` [apixaban, 1-(4-methoxyphenyl)-7-oxo-6-(4-(2-oxopiperidin-1-yl)phenyl)-3a,4,5,6,7,7a-hexahydro-1H-pyrazolo[3,4-c]pyridine-3-carboxamide] the “antithrombotic activity in the intravital microscopy thrombosis model in mice” value [1] was “significant antithrombotic activity”.
With bivalirudin the “inhibition of the thrombotic process” value [2] was “did not significantly inhibit the thrombotic process”.
`CNc1cc2[nH]c(=O)n(-c3ccc(NC(=O)NS(=O)(=O)c4ccc(Cl)s4)cc3)c(=O)c2cc1F` [Compound A] was tested, and the “plasma concentration that did not prevent occlusion” value ([3]; PK/PD, FIG. 13) was “below 1 μg/mL”, the “plasma concentrations of non-effective doses” value ([3]; PK/PD, FIG. 13) was “below 200 ng/mL” and the “plasma levels that prevented vascular occlusion” value ([3]; PK/PD, FIG. 13) was over 1 µg/mL. For the same compound, the “concentration capable of maximal inhibition of platelet aggregation” value [4] was 10 µM, the IC50 ([4]; Platelet, platelets derived from human donors, n=19, read-out: half maximal inhibition of ADP induced platelet aggregation) was 4.7 ± 5.1 µM and the inhibition at 1.1 µM [5] was 23%. For the same compound, the platelet thrombus size [6] was “no significant effect”.
For `COc1ccc(NC(=O)c2ccc(C(=N)N(C)C)cc2)c(C(=O)Nc2ccc(Cl)cn2)c1` [betrixaban, [2-({4-[(dimethylamino)iminomethyl]phenyl}carbonylamino)-5-methoxyphenyl]-N-(5-chloro(2-pyridyl))carboxamide], the “time for appearance of first thrombus” value [3, 8] was “significantly delayed”, the time to occlusion [3, 8] was “significantly delayed” and the “effect in the thrombosis model” value ([3]; betrixaban 2 and 4 mg/kg, oral gavage) was “non-effective”. For the same compound, the “concentration adequate for equivalent inhibition of thrombin generation as a therapeutic anticoagulant (Pentasaccharide fondaparinux)” value [7] was 31.25 nM and the non-effective doses ([1]; betrixaban) was “below 100 ng/mL”.
`O=C(NC[C@H]1CN(c2ccc(N3CCOCC3=O)cc2)C(=O)O1)c1ccc(Cl)s1` [rivaroxaban, (5S)-5-chloro-N-((2-oxo-3-(4-(3-oxomorpholino)phenyl)oxazolidin-5-yl)methyl)thiophene-2-carboxamide] was tested, and the “antithrombotic activity in the intravital microscopy thrombosis model in mice” value [1] was “significant antithrombotic activity”.
